Reference: patent publication US20200069648A1, “HALOALLYLAMINE PYRAZOLE DERIVATIVE INHIBITORS OF LYSYL OXIDASES AND USES THEREOF” (Pharmaxis Ltd., priority 2017, published 2020)
Counter-ions that a name gives are not always drawn.

Key:
[1] = biological target: T1, human recombinant SSAO/VAP-1 (Homo sapiens, UniProt Q16853); assay: Human recombinant SSAO/VAP-1 amine oxidase inhibition; format: biochemical; settings: 30 min preincubation at 37° C., 600 μM benzylamine
T1 construct: a cloned cDNA template corresponding to residues 34-763 of human SSAO/VAP-1; TEV cleavage site (N); made in house
T1 sequence (Q16853 34-763): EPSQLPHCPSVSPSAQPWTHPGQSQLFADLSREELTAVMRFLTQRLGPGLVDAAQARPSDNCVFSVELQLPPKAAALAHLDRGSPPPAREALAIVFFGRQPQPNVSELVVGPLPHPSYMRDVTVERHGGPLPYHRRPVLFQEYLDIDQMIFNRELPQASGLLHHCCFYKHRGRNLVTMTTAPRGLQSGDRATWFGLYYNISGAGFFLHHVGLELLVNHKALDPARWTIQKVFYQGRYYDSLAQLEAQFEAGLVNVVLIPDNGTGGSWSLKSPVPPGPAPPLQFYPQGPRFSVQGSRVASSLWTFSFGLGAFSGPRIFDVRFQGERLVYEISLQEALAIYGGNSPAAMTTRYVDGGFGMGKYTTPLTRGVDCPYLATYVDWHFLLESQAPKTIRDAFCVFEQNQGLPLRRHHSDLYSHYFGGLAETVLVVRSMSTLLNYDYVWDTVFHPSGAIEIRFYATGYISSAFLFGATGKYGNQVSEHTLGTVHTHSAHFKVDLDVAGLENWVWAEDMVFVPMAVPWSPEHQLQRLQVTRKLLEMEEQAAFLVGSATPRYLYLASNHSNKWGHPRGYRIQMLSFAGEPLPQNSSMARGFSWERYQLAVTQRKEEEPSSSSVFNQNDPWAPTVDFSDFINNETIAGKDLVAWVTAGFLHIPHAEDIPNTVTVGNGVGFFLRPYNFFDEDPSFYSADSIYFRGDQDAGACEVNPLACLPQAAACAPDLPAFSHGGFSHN
Protocol: Method to Determine the Ability of Compounds of Formula I to Inhibit Human Recombinant SSAO/VAP-1
Human recombinant SSAO/VAP-1 amine oxidase activity was determined using the coupled colorimetric method as described for monoamine oxidase, copper-containing amine oxidases and related enzymes (Holt A. and Palcic M., A peroxidase-coupled continuous absorbance plate-reader assay for flavin monoamine oxidases, copper-containing amine oxidases and related enzymes. Nat Protoc 2006; 1: 2498-2505). Briefly, a cloned cDNA template corresponding to residues 34-763 of human SSAO/VAP-1, and incorporating a mouse Ig kappa (κ) signal sequence, N-terminal flag epitope tag and tobacco etch virus (TEV) cleavage site, was assembled in a mammalian expression vector (pLO-CMV) by Geneart AG. This vector containing human SSAO/VAP-1 residues was transfected into CHO-K1 glycosylation mutant cell line, Lec 8. A clone stably expressing human SSAO/VAP-1 was isolated and cultured in large scale. Active human SSAO/VAP-I was purified and recovered using immunoaffinity chromatography. This was used as the source for SSAO/VAP-1 activity. A high-throughput colorimetric assay was developed using either 96 or 384 well format. Briefly, in a standard 96 well plate assay 50 μL of purified human SSAO/VAP-1 (0.25 μg/mL) in 0.1 M sodium phosphate buffer (pH 7.4) was added into each well. Test compounds were dissolved in DMSO and tested in a Concentration Response Curve (CRC) with 4-11 data points, typically in the micromolar or nanomolar range after incubation with human SSAO/VAP-1 for 30 min at 37° C. After 30 min incubation, 50 μL of the reaction mixture containing 600 μM benzylamine (Sigma Aldrich), 120 μM Amplex Red (Sigma Aldrich) and 1.5 U/mL horseradish peroxidase (Sigma Aldrich) prepared in 0.1 M sodium phosphate buffer (pH 7.4) were added to the corresponding well. The fluorescence unit (RFU) was read every 2.5 min for 30 min at 37° C. excitation 565 nm and emission 590 (Optima; BMG labtech). The slope of the kinetics for each well was calculated using MARS data analysis software (BMG labtech) and this value was used to deduce the IC50 value (Dotmatics).

Bovine LOX = biological target: T2, Bovine LOX (Bos taurus, UniProt P33072); assay: LOX amine oxidase inhibition, peroxidase-coupled Amplex Red assay; format: biochemical; settings: 30 min preincubation at 37° C., putrescine substrate
T2 sequence (P33072 170-418): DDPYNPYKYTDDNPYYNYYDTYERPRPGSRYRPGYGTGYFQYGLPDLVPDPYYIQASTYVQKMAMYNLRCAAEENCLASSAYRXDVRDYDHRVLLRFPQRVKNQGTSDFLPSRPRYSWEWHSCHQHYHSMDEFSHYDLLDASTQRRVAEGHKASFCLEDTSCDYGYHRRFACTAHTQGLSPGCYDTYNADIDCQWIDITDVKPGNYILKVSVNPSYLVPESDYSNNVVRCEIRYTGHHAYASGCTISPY
Method in brief: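 Bovine LOX in 1.2 M urea, 50 mM sodium borate pH 8.2 […]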

| Structure (SMILES) | IC50 [1] | IC50 (Bovine LOX) |
| --- | --- | --- |
| CC(C)c1nn(C/C(F)=C/CN)c(C(C)O)c1Cc1ccc(S(=O)(=O)N(C)C)c(Cl)c1 (centres unmarked) [Compound 59, (Z)-4-((1-(4-amino-2-fluorobut-2-en-1-yl)-5-(1-hydroxyethyl)-3-isopropyl-1H-pyrazol-4-yl)methyl)-2-chloro-N,N-dimethylbenzenesulfonamide hydrochloride] | > 30 µM | > 10 µM |
| CC(C)c1nn(C/C(F)=C/CN)c(C(C)C)c1Cc1ccc(S(=O)(=O)N(C)C)c(Cl)c1 [Compound 60, (Z)-4-((1-(4-amino-2-fluorobut-2-en-1-yl)-3,5-diisopropyl-1H-pyrazol-4-yl)methyl)-2-chloro-N,N-dimethylbenzenesulfonamide hydrochloride] | > 30 µM | < 10 µM |
| Cc1nn(C/C(F)=C/CN)c(C(=O)NC(C)(C)C)c1Cc1ccc(S(=O)(=O)N(C)C)c(Cl)c1 [Compound 62, (Z)-1-(4-amino-2-fluorobut-2-en-1-yl)-N-(tert-butyl)-4-(3-chloro-4-(N,N-dimethylsulfamoyl)benzyl)-3-methyl-1H-pyrazole-5-carboxamide hydrochloride] | > 30 µM | < 10 µM |

Second part, the molecule after the results:

| IC50 [1] | IC50 (Bovine LOX) | Structure (SMILES) |
| --- | --- | --- |
| > 30 µM | > 10 µM | Cc1nn(C/C(F)=C/CN)c(C(=O)O)c1Cc1ccc(S(=O)(=O)N(C)C)cc1 [Compound 30, (Z)-1-(4-amino-2-fluorobut-2-enyl)-4-(4-(N,N-dimethylsulfamoyl)benzyl)-3-methyl-1H-pyrazole-5-carboxylic acid hydrochloride] |
| > 30 µM | > 10 µM | Cc1c(Cc2ccc(S(=O)(=O)N(C)C)cc2)c(C(=O)O)nn1C/C(F)=C/CN [Compound 31, (Z)-1-(4-amino-2-fluorobut-2-enyl)-4-(4-(N,N-dimethylsulfamoyl)benzyl)-5-methyl-1H-pyrazole-3-carboxylic acid hydrochloride] |
| > 30 µM | < 10 µM | Cc1c(Cc2ccc(S(=O)(=O)N(C)C)cc2)c(C(=O)N(C)C)nn1C/C(F)=C/CN [Compound 32, (Z)-1-(4-amino-2-fluorobut-2-enyl)-4-(4-(N,N-dimethylsulfamoyl)benzyl)-N,N,5-trimethyl-1H-pyrazole-3-carboxamide hydrochloride] |
| > 30 µM | > 10 µM | Cc1nn(C/C(F)=C/CN)c(C(=O)N(C)C)c1Cc1ccc(S(=O)(=O)N(C)C)c(Cl)c1 [Compound 61, (Z)-1-(4-amino-2-fluorobut-2-en-1-yl)-4-(3-chloro-4-(N,N-dimethylsulfamoyl)benzyl)-N,N,3-trimethyl-1H-pyrazole-5-carboxamide hydrochloride] |
